Where two headings read alike, the source gives them in different places.
Tests used:
[1] = system: NCl-H82 (small cell lung cancer); experiment: Antiproliferative assay on NCl-H82 cells (AlamarBlue, 120 h); assay type: cell-based; conditions: mean value from several measurements
Procedure: The antiproliferative activity of CDK7 inhibitors according to the present invention was evaluated in a cell test using continuous cell cultures: MDA-MB-468 (triple negative breast cancer, ATCC® HTB-132™) and NCl-H82 (small cell lung cancer, ATCC® HTB-175™) using a viable AlamarBlue dye (Thermo Fisher Scientific Inc, order no. DAL1100). The cells were grown in DMEM (PanEco, order no. C330π) and RPMI-1640 (PanEco, order no. C330π), respectively. The basal growth medium was enriched with L-glutamine at a concentration of 2 mM (PanEco, order no. Φ032) and 10% fetal bovine serum (Gibco, order no. 16140-071). The night before measurement, MDA-MB-468 adherent cells were detached from plastic with a solution of trypsin-EDTA (PanEco, order no. Π039π), the solution was then inactivated by a DMEM complete medium, centrifuged at 1000 RPM (Eppendorf, 5804 R), a suspension of cells was prepared in a DMEM complete medium, introduced into 96-well culture plates (Corning Inc, order no. 3599) at 8×10^3 cells in 100 μl of medium per well. The next day, test compounds were dissolved in DMSO and diluted with a DMEM complete medium to a final concentration ranging from 50 μM to 10 pM. Diluted compounds in a volume of 50 μl were introduced into the plate wells with cells in triplicates (the final concentration of DMSO was no more than 1%) and incubated at 37° C. in an incubator with 5% CO2 for 96 hours. NCl-H82 suspension cell line was prepared on the day of the analysis. 10×10^3 cells in 100 μl of an RPMI-1640 complete medium were added to each well of a 96-well plate. The procedure for sample dilution is as described above. Cells with test compounds were incubated at 37° C. in an incubator with 5% CO2 for 120 hours. Following incubation, […] of AlamarBlue reagent (Thermo Fisher Scientific Inc., order no. DAL1100) was added to the wells, the contents of the plates were stirred in an orbital shaker (Biosan, Latvia), then further incubated for 5.5-6 hours at 37° C. in an incubator with 5% CO2. The number of viable cells was detected using the Infinite M200Pro microplate spectrophotometer (Tecan Group Ltd, Switzerland) by way of measuring a fluorescent signal at an excitation wavelength (λEx) of 540 nm and an emission wavelength (λEm) of 590 nm.
IC50 value was calculated using the Magellan software (Tecan Group Ltd, Switzerland) by approximating experimental points by four-parameter model with the optimization by Levenberg-Marquardt: […]

[2] = system: MDA-MB-468 (triple negative breast cancer); experiment: Antiproliferative assay on MDA-MB-468 cells (AlamarBlue, 96 h); assay type: cell-based; conditions: Homo sapiens, mean value from several measurements
CDK7/Cyclin H/MNAT1 = CDK7/Cyclin H/MNAT1 (Homo sapiens, UniProt P50613); experiment: Inhibition of CDK7/Cyclin H/MNAT1 kinase activity (ADP-Glo); assay type: biochemical
In short: (§1)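 ADP-Glo luminescence quantified ATP consumption after a 40-60 minute, 25° C. reaction with ATP plus CDKtide, Histone H1 or PDKtide, following a 10-minute compound–kinase preincubation in DTT-supplemented kinase buffer A. Compounds spanned 11 concentrations from 50 μM in 4-fold dilutions; IC50 fitted to a four-parameter model.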

CDK2/Cyclin A = CDK2/Cyclin A (Homo sapiens, UniProt P24941); experiment: Inhibition of CDK2/Cyclin A kinase activity (ADP-Glo); assay type: biochemical
In short: as §1

[3] = General cytotoxicity on primary differentiated HepaRG cells (72 h); assay type: cell-based; conditions: human, general toxicity, mean value from several measurements
In short: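 Test compounds spanning 200 μM to 0.2 nM were incubated for 72 hours with primary differentiated HepaRG cells. Cells had been kept one week in supplemented hepatic medium and seeded the night before at 25×10^3 per well, and viability was then measured.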

CDK9/Cyclin K = CDK9/Cyclin K (Homo sapiens, UniProt P50750); experiment: Inhibition of CDK9/Cyclin K kinase activity (ADP-Glo); assay type: biochemical
In short: as §1

[4] = Passive membrane permeability through PAMPA artificial membrane, pH 7.4; assay type: in vitro ADME; conditions: pH 7.4, 10 μmol, 20 hours at room temperature, mean of multiple measurements, read-out: PAMPA passive permeability Pe
Procedure: Passive membrane permeability of the compounds described in the present invention was determined using the PAMPA (parallel artificial membrane permeability assay) model at pH 7.4.
We used a 96-well plate (Corning® BioCoat® Pre-coated PAMPA Plate System, order no. 353015), composed of acceptor and donor parts with cell membrane-modeling PVDF filter pre-impregnated with a lecithin-phospholipid bilayer. The substance (at a concentration of 10 μmol) in a 0.01 M phosphate buffer with pH 7.4 was introduced into a donor well of the plate, and pure buffer was introduced into an acceptor well; afterwards, the both parts were combined and incubated for 20 hours at room temperature so that the compound was redistributed between the two wells and the membrane. Verapamil (USP, USA, order no. 1711202) and propranolol (MCE LLC, USA, cat. no. HY-B0573/CS-2680) were used as control compounds with high and medium permeability. Samples were analyzed by reversed-phase HPLC with UV detection (Agilent 1260 chromatograph with UV detector) by determining their peak areas in the donor and acceptor wells.
Permeability (Pe, cm/s) and retention factor (R, %) in the lipid bilayer were calculated using the formula:
[formula] [formula] • Co is donor-well concentration of the substance at the initial moment of time t (μM); • CA (t) is acceptor-well concentration of the substance at time t (μM); • Vd is donor-well volume (0.3 ml); • Va is acceptor-well volume (0.15 ml).
[formula] • A is filter area (0.3 cm^2); • t is incubation time (72000 s);

[5] = mean value from several measurements, read-out: IC50 CDK7/Cyclin H/MNAT
[6] = mean value from several measurements, read-out: IC50 CDK2/Cyclin A
[7] = mean value from several measurements, read-out: IC50 CDK9/Cyclin K
[8] = mean of multiple measurement series, ATP 10 μM, read-out: CDK7/Cyclin H/MNAT1 IC50
[9] = mean of multiple measurement series, ATP 50 μM, read-out: CDK2/Cyclin A IC50
[10] = mean of multiple measurement series, ATP 50 μM, read-out: CDK9/Cyclin K IC50

Chain of CDK9/Cyclin K (P50750 whole entry): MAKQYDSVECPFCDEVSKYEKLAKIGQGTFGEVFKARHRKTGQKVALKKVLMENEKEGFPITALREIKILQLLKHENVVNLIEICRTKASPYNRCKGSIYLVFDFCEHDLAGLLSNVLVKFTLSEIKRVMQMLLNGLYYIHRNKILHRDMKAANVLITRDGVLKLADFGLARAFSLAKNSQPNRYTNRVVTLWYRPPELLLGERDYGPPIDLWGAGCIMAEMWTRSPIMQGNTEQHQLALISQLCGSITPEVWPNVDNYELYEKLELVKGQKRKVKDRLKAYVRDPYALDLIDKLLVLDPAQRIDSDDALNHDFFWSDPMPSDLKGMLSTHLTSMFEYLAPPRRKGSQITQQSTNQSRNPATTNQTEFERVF
Chain of CDK9/Cyclin K (O75909 whole entry partner): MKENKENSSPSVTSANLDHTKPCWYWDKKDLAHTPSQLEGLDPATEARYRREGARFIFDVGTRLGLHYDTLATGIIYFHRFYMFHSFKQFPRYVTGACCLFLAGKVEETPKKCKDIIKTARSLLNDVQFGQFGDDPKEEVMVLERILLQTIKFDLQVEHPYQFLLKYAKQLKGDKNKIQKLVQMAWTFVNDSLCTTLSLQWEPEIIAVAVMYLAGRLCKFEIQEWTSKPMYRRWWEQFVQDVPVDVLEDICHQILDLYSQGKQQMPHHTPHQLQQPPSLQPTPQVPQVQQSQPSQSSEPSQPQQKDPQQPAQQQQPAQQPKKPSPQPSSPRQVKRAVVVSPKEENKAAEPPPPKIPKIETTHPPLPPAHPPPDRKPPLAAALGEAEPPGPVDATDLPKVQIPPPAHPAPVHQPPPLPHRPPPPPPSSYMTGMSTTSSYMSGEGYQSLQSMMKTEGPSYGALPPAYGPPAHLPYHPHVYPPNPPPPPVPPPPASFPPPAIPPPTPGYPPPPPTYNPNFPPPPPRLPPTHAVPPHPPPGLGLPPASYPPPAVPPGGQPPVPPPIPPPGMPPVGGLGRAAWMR
Chain of CDK7/Cyclin H/MNAT1 (P50613 whole entry): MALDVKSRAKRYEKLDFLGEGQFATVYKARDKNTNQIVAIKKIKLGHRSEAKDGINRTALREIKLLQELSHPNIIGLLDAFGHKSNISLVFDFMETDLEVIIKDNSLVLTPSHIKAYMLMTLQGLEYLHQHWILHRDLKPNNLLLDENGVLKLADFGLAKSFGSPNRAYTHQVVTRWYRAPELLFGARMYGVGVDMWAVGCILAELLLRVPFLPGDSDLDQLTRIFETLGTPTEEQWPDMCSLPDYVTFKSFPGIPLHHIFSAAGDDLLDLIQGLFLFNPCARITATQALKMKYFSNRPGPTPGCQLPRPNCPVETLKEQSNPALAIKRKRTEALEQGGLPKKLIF
Chain of CDK7/Cyclin H/MNAT1 (P51946 whole entry partner): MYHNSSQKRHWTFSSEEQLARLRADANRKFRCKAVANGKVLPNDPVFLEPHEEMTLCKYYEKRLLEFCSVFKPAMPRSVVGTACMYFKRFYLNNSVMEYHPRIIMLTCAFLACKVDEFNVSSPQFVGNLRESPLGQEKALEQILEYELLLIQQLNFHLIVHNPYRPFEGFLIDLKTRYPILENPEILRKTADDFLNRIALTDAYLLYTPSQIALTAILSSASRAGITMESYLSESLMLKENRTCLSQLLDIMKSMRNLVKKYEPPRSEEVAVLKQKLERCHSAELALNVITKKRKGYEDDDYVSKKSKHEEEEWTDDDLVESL
Chain of CDK7/Cyclin H/MNAT1 (P51948 whole entry partner): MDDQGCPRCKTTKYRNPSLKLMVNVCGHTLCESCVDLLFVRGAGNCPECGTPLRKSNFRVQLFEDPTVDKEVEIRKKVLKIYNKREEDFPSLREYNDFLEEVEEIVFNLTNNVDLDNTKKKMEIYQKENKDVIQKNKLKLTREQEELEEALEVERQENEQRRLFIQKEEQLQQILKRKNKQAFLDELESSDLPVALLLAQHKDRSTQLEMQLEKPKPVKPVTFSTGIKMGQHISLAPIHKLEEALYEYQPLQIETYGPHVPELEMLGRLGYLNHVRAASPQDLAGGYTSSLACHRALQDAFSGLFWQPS

| SMILES | IC50 [1] [µM] | IC50 [2] [µM] | IC50 (CDK7/Cyclin H/MNAT1; [5]) [µM] | IC50 (CDK2/Cyclin A; [6]) [µM] | CC50 at 72 h [3] [µM] | IC50 (CDK9/Cyclin K; [7]) [µM] | Papp at 20 h, 10 μmol [4] [×10⁻⁶ cm/s] | IC50 (CDK7/Cyclin H/MNAT1; [8]) [µM] | IC50 (CDK2/Cyclin A; [9]) [µM] | IC50 (CDK9/Cyclin K; [10]) [µM] |
| --- | --- | --- | --- | --- | --- | --- | --- | --- | --- | --- |
| O=C(Nc1ccc(N2CCOCC2)cc1)c1cc(-c2nc(N[C@H]3CCCNC3)ncc2C(F)(F)F)c[nH]1 [CDK7_838, N-[4-(morpholin-4-yl)phenyl]-4-(2-{[(3S)-piperidin-3-yl]amino}-5-(trifluoromethyl)pyrimidin-4-yl)-1H-pyrrole-2-carboxamide] | 0.1 to 1 | 0.1 to 1 | 0.005 to 0.05 | > 0.2 | 0.5 to 2 | 0.05 to 0.2 | – | – | – | – |
| O=C(NC1CC1)c1cc(-c2nc(N[C@H]3CCCNC3)ncc2C(F)(F)F)c[nH]1 [CDK7_951, N-cyclopropyl-4-(2-{[(3S)-piperidin-3-yl]amino}-5-(trifluoromethyl)pyrimidin-4-yl)-1H-pyrrole-2-carboxamide] | – | 0.01 to 0.1 | < 0.005 | > 0.2 | 0.5 to 2 | 0.005 to 0.05 | < 1 | – | – | – |
| CCOC(=O)c1cc(-c2nc(N[C@H]3CCCNC3)ncc2C(F)(F)F)c[nH]1 [CDK7_1020, ethyl 4-(2-{[(3S)-piperidin-3-yl]amino}-5-(trifluoromethyl)py-rimidin-4-yl)-1H-pyrrole-2-carboxylate] | 0.01 to 0.1 | 0.01 to 0.1 | < 0.005 | > 0.2 | > 2 | 0.005 to 0.05 | – | – | – | – |
| Cn1cc(-n2ccc3c(-c4nc(N[C@H]5CCCNC5)ncc4C(F)(F)F)c[nH]c3c2=O)ccc1=O [CDK7_1052, 1-methyl-5-[7-oxo-3-(2-{[(3S)-piperidin-3-yl]amino}-5-(trifluoromethyl)py-rimidin-4-yl)-1H,6H,7H-pyrrolo[2,3-c]pyridin-6-yl]-1,2-dihydropyridin-2-one] | 0.1 to 1 | 0.1 to 1 | < 0.005 | > 0.2 | > 2 | > 0.2 | – | < 0.005 | 12.4 | 0.479 |
| FC(F)(F)c1cnc(N[C@H]2CCCNC2)nc1-c1c[nH]c(-c2ncccn2)c1 [CDK7_1062, N-[(3S)-piperidin-3-yl]-4-[5-(pyrimidin-2-yl)-1H-pyrrol-3-yl]-5-(trifluoromethyl)py-rimidin-2-amine] | 0.01 to 0.1 | 0.01 to 0.1 | < 0.005 | > 0.2 | 0.1 to 0.5 | 0.005 to 0.05 | – | – | – | – |
| Cn1cc(-n2ccc3c(-c4nc(N[C@H]5CCC6(CC6)NC5)ncc4C(F)(F)F)c[nH]c3c2=O)cn1 [CDK7_1199, 3-(2-{[(6S)-4-azaspiro[2.5]octan-6-yl]amino}-5-(trifluoromethyl)py-rimidin-4-yl)-6-(1-methyl-1H-pyrazol-4-yl)-1H,6H,7H-pyrrolo[2,3-c]pyridin-7-one] | < 0.01 | < 0.01 | < 0.005 | > 0.2 | – | > 0.2 | – | < 0.005 | 3.39 | 0.843 |
| Cc1nnc2n1CCCc1c(-c3nc(N[C@H]4CCCNC4)ncc3C(F)(F)F)c[nH]c1-2 [CDK7_1236, 4-{5-methyl-3,4,6,13-tetraazatricyclo[8.3.0.0^2,^6]trideca-1(10),2,4,11-tetraen-11-yl}-N-[(3S)-piperidin-3-yl]-5-(trifluoromethyl)py-rimidin-2-amine] | 0.01 to 0.1 | 0.01 to 0.1 | < 0.005 | > 0.2 | > 2 | 0.05 to 0.2 | – | – | – | – |
| COCCN1CCCc2c(-c3nc(N[C@H]4CCC(C)(C)NC4)ncc3C(F)(F)F)c[nH]c2C1=O [CDK7_1268, 3-(2-{[(3S)-6,6-dimethylpiperidin-3-yl]amino}-5-(trifluoromethyl)py-rimidin-4-yl)-7-(2-methoxyethyl)-1H,4H,5H,6H,7H, 8H-pyrrolo[2,3-c]azepin-8-one] | 0.01 to 0.1 | 0.01 to 0.1 | – | > 0.2 | > 2 | > 0.2 | – | – | – | – |
